Several values for one entry are separate records, joined by “and”; a condition that tells them apart may be missing. Equal values may be shown once. Activity calls are given as the source filed them. The rule behind the calls is not given here.
Tested on: rodent lifetime carcinogenesis bioassay, tumor incidence TD50
Test: chronic cancer bioassays in animals – CPDB, compiled studies (AID 1745844)
[1] = mouse, strain B6AKF1, females, oral dosing, site: lung, lesion: adenoma, dosed 76 weeks, study length 76 weeks

Cc1ccc(N)cc1N
TD50 (mouse, strain B6C3F1, females, in feed, site: all sites, lesion: leukemia + lymphoma, dosed 101 weeks, study length 101 weeks): 10.6 mg/kg/day | TD50 (mouse, strain B6C3F1, females, in feed, site: any site (literature study), lesion: several types, types named in the paper, dosed 101 weeks, study length 101 weeks): 8.64 mg/kg/day | TD50 (mouse, strain B6C3F1, females, in feed, site: liver, lesion: hepatocellular adenoma + hepatocellular carcinoma + neoplastic nodule, dosed 101 weeks, study length 101 weeks): 26.7 mg/kg/day | TD50 (mouse, strain B6C3F1, females, in feed, site: liver, lesion: hepatocellular carcinoma, dosed 101 weeks, study length 101 weeks): 26.7 mg/kg/day | TD50 (mouse, strain B6C3F1, males, in feed, site: any site (literature study), lesion: several types, types named in the paper, dosed 101 weeks, study length 101 weeks): 105 mg/kg/day | TD50 (mouse, strain B6C3F1, males, in feed, site: lung, lesion: alveolar/bronchiolar adenoma + alveolar/bronchiolar carcinoma, dosed 101 weeks, study length 101 weeks): 35.8 mg/kg/day | TD50 (mouse, strain B6C3F1, males, in feed, site: lung, lesion: alveolar/bronchiolar carcinoma, dosed 101 weeks, study length 101 weeks): 35.8 mg/kg/day (inactive) | TD50 (mouse, strain CD-1 HaM/ICR, females, in feed, site: any site (literature study), lesion: several types, types named in the paper, dosed 77 weeks, study length 90 weeks): 100 mg/kg/day | TD50 (mouse, strain CD-1 HaM/ICR, females, in feed, site: liver, lesion: hepatoma, dosed 77 weeks, study length 90 weeks): 206 mg/kg/day | TD50 (mouse, strain CD-1 HaM/ICR, females, in feed, site: liver, lesion: several types, types named in the paper, dosed 77 weeks, study length 90 weeks): 180 mg/kg/day | TD50 (mouse, strain CD-1 HaM/ICR, females, in feed, site: lung, lesion: several types, types named in the paper, dosed 77 weeks, study length 90 weeks): 72 mg/kg/day (inactive) | TD50 (mouse, strain CD-1 HaM/ICR, males, in feed, site: all sites, lesion: all vascular tumors, dosed 77 weeks, study length 90 weeks): 317 mg/kg/day | TD50 (mouse, strain CD-1 HaM/ICR, males, in feed, site: liver, lesion: hepatoma, dosed 77 weeks, study length 90 weeks): 201 mg/kg/day | TD50 (mouse, strain CD-1 HaM/ICR, males, in feed, site: liver, lesion: several types, types named in the paper, dosed 77 weeks, study length 90 weeks): 191 mg/kg/day | carcinogen call (mouse, strain CD-1 HaM/ICR, males, in feed, site: lung, lesion: several types, types named in the paper, dosed 77 weeks, study length 90 weeks): negative (inactive) | TD50 (rat, strain Charles River CD (Sprague-Dawley), males, in feed, site: any site (literature study), lesion: several types, types named in the paper, dosed 64 weeks, study length 73 weeks): 2.98 mg/kg/day | TD50 (rat, strain Charles River CD (Sprague-Dawley), males, in feed, site: liver, lesion: hepatoma, dosed 64 weeks, study length 73 weeks): 22.2 mg/kg/day | TD50 (rat, strain Charles River CD (Sprague-Dawley), males, in feed, site: liver, lesion: several types, types named in the paper, dosed 64 weeks, study length 73 weeks): 26.2 mg/kg/day | TD50 (rat, strain Charles River CD (Sprague-Dawley), males, in feed, site: subcutaneous tissue, lesion: fibroma, dosed 64 weeks, study length 73 weeks): 5.42 mg/kg/day and 4.42 mg/kg/day | TD50 (rat, strain Fischer 344, females, in feed, site: any site (literature study), lesion: several types, types named in the paper, dosed 93 weeks, study length 103 weeks): 1.46 mg/kg/day | TD50 (rat, strain Fischer 344, females, in feed, site: liver + mammary gland, lesion: hepatocellular carcinoma + neoplastic nodule + adenoma + carcinoma, dosed 93 weeks, study length 103 weeks): 1.43 mg/kg/day | TD50 (rat, strain Fischer 344, females, in feed, site: liver, lesion: hepatocellular adenoma + hepatocellular carcinoma + neoplastic nodule, dosed 93 weeks, study length 103 weeks): 58 mg/kg/day | TD50 (rat, strain Fischer 344, females, in feed, site: liver, lesion: hepatocellular carcinoma + neoplastic nodule, dosed 93 weeks, study length 103 weeks): 58 mg/kg/day | TD50 (rat, strain Fischer 344, females, in feed, site: mammary gland, lesion: adenoma + carcinoma, dosed 93 weeks, study length 103 weeks): 5.54 mg/kg/day | TD50 (rat, strain Fischer 344, females, in feed, site: mammary gland, lesion: adenoma, dosed 93 weeks, study length 103 weeks): 1.46 mg/kg/day | TD50 (rat, strain Fischer 344, females, in feed, site: mammary gland, lesion: carcinoma, dosed 93 weeks, study length 103 weeks): 8.98 mg/kg/day | TD50 (rat, strain Fischer 344, females, in feed, site: subcutaneous tissue, lesion: fibroma, dosed 93 weeks, study length 103 weeks): 16.4 mg/kg/day | TD50 (rat, strain Fischer 344, males, in feed, site: all sites, lesion: mesothelioma, dosed 91 weeks, study length 103 weeks): 6.81 mg/kg/day | TD50 (rat, strain Fischer 344, males, in feed, site: any site (literature study), lesion: several types, types named in the paper, dosed 91 weeks, study length 103 weeks): 0.991 mg/kg/day | TD50 (rat, strain Fischer 344, males, in feed, site: liver, lesion: hepatocellular adenoma + hepatocellular carcinoma + neoplastic nodule, dosed 91 weeks, study length 103 weeks): 8.11 mg/kg/day | TD50 (rat, strain Fischer 344, males, in feed, site: liver, lesion: hepatocellular carcinoma + neoplastic nodule, dosed 91 weeks, study length 103 weeks): 8.11 mg/kg/day | TD50 (rat, strain Fischer 344, males, in feed, site: subcutaneous tissue, lesion: fibroma, dosed 91 weeks, study length 103 weeks): 2.52 mg/kg/day | TD50 (rat, strain Fischer 344, males, in feed, site: subcutaneous tissue, lesion: lipoma, dosed 91 weeks, study length 103 weeks): 13.2 mg/kg/day

CNC(=S)N(C)C
TD50 (mouse, strain B6C3F1, females, in feed, site: any site (literature study), lesion: several types, types named in the paper, dosed 77 weeks, study length 91 weeks): 1970 mg/kg/day (inactive) | TD50 (mouse, strain B6C3F1, females, in feed, site: lung, lesion: alveolar/bronchiolar adenoma + alveolar/bronchiolar carcinoma, dosed 77 weeks, study length 91 weeks): 1260 mg/kg/day | carcinogen call (mouse, strain B6C3F1, males, in feed, site: any site (literature study), lesion: several types, types named in the paper, dosed 77 weeks, study length 91 weeks): negative (inactive) | TD50 (mouse, strain B6C3F1, males, in feed, site: lung, lesion: alveolar/bronchiolar adenoma + alveolar/bronchiolar carcinoma, dosed 77 weeks, study length 91 weeks): 478 mg/kg/day | TD50 (rat, strain Fischer 344, females, in feed, site: any site (literature study), lesion: several types, types named in the paper, dosed 77 weeks, study length 106 weeks): 17.4 mg/kg/day | TD50 (rat, strain Fischer 344, females, in feed, site: thyroid gland, lesion: follicular-cell adenoma + follicular-cell carcinoma, dosed 77 weeks, study length 106 weeks): 25.8 mg/kg/day | TD50 (rat, strain Fischer 344, females, in feed, site: thyroid gland, lesion: follicular-cell carcinoma, dosed 77 weeks, study length 106 weeks): 45 mg/kg/day | carcinogen call (rat, strain Fischer 344, males, in feed, site: any site (literature study), lesion: several types, types named in the paper, dosed 77 weeks, study length 106 weeks): negative (inactive)

ClC#CCl
TD50 (mouse, strain NMRI, females, inhaled, site: Harderian gland, lesion: cystadenoma, dosed 52 weeks, study length 98 weeks): 3.02 mg/kg/day | TD50 (mouse, strain NMRI, females, inhaled, site: Harderian gland, lesion: cystadenoma, dosed 78 weeks, study length 119 weeks): 0.55 mg/kg/day | TD50 (mouse, strain NMRI, females, inhaled, site: Harderian gland, lesion: cystadenoma, dosed 78 weeks, study length 129 weeks): 0.499 mg/kg/day | TD50 (mouse, strain NMRI, females, inhaled, site: kidney, lesion: cystadenoma, dosed 52 weeks, study length 98 weeks): 1.03 mg/kg/day | TD50 (mouse, strain NMRI, females, inhaled, site: kidney, lesion: cystadenoma, dosed 78 weeks, study length 119 weeks): 1.08 mg/kg/day | TD50 (mouse, strain NMRI, females, inhaled, site: kidney, lesion: cystadenoma, dosed 78 weeks, study length 129 weeks): 7.8 mg/kg/day | TD50 (mouse, strain NMRI, females, inhaled, site: lung, lesion: adenoma, dosed 78 weeks, study length 119 weeks): 2.73 mg/kg/day | carcinogen call (mouse, strain NMRI, males, inhaled, site: Harderian gland, lesion: cystadenoma, dosed 52 weeks, study length 92 weeks): positive | TD50 (mouse, strain NMRI, males, inhaled, site: Harderian gland, lesion: cystadenoma, dosed 78 weeks, study length 118 weeks): 0.687 mg/kg/day | TD50 (mouse, strain NMRI, males, inhaled, site: Harderian gland, lesion: cystadenoma, dosed 78 weeks, study length 127 weeks): 1.01 mg/kg/day | TD50 (mouse, strain NMRI, males, inhaled, site: kidney, lesion: cystadenocarcinoma, dosed 52 weeks, study length 92 weeks): 3.89 mg/kg/day | TD50 (mouse, strain NMRI, males, inhaled, site: kidney, lesion: cystadenocarcinoma, dosed 78 weeks, study length 118 weeks): 4.52 mg/kg/day | TD50 (mouse, strain NMRI, males, inhaled, site: kidney, lesion: cystadenocarcinoma, dosed 78 weeks, study length 127 weeks): 0.501 mg/kg/day | TD50 (mouse, strain NMRI, males, inhaled, site: kidney, lesion: cystadenoma, dosed 52 weeks, study length 92 weeks): 0.486 mg/kg/day | TD50 (mouse, strain NMRI, males, inhaled, site: kidney, lesion: cystadenoma, dosed 78 weeks, study length 118 weeks): 0.769 mg/kg/day | TD50 (mouse, strain NMRI, males, inhaled, site: kidney, lesion: cystadenoma, dosed 78 weeks, study length 127 weeks): 0.466 mg/kg/day | TD50 (rat, strain Wistar, females, inhaled, site: all sites, lesion: malignant lymphoma, dosed 78 weeks, study length 150 weeks): 3.86 mg/kg/day | TD50 (rat, strain Wistar, females, inhaled, site: kidney, lesion: cystadenoma, dosed 78 weeks, study length 150 weeks): 11.5 mg/kg/day | TD50 (rat, strain Wistar, females, inhaled, site: liver, lesion: cholangioma, dosed 78 weeks, study length 150 weeks): 3.86 mg/kg/day | TD50 (rat, strain Wistar, females, inhaled, site: liver, lesion: hepatocellular adenoma, dosed 78 weeks, study length 150 weeks): 17.5 mg/kg/day | TD50 (rat, strain Wistar, males, inhaled, site: kidney, lesion: cystadenocarcinoma, dosed 78 weeks, study length 157 weeks): 26.2 mg/kg/day | TD50 (rat, strain Wistar, males, inhaled, site: kidney, lesion: cystadenoma, dosed 78 weeks, study length 157 weeks): 3.34 mg/kg/day | TD50 (rat, strain Wistar, males, inhaled, site: liver, lesion: cholangioma, dosed 78 weeks, study length 157 weeks): 3.97 mg/kg/day | TD50 (rat, strain Wistar, males, inhaled, site: liver, lesion: hepatocellular adenoma, dosed 78 weeks, study length 157 weeks): 12.9 mg/kg/day

Oc1c(Cl)cc(Cl)cc1Sc1cc(Cl)cc(Cl)c1O
carcinogen call (mouse, strain B6AKF1, females, oral dosing, site: liver, lesion: hepatoma, dosed 76 weeks, study length 76 weeks): negative (inactive) | TD50 [1]: 100 mg/kg/day | carcinogen call [1]: negative (inactive) | carcinogen call (mouse, strain B6AKF1, males, oral dosing, site: any site (literature study), lesion: several types, types named in the paper, dosed 76 weeks, study length 76 weeks): negative (inactive) | carcinogen call (mouse, strain B6AKF1, males, oral dosing, site: liver, lesion: hepatoma, dosed 76 weeks, study length 76 weeks): negative (inactive) | carcinogen call (mouse, strain B6AKF1, males, oral dosing, site: lung, lesion: adenoma, dosed 76 weeks, study length 76 weeks): negative (inactive) | carcinogen call (mouse, strain B6C3F1, females, oral dosing, site: any site (literature study), lesion: one or several types, types not named, dosed 76 weeks, study length 76 weeks): negative (inactive) | TD50 (mouse, strain B6C3F1, females, oral dosing, site: any site (literature study), lesion: several types, types named in the paper, dosed 76 weeks, study length 76 weeks): 43 mg/kg/day | carcinogen call (mouse, strain B6C3F1, females, oral dosing, site: liver, lesion: hepatoma, dosed 76 weeks, study length 76 weeks): negative (inactive) | carcinogen call (mouse, strain B6C3F1, females, oral dosing, site: lung, lesion: several types, types named in the paper, dosed 76 weeks, study length 76 weeks): negative (inactive) | TD50 (mouse, strain B6C3F1, males, oral dosing, site: liver, lesion: angioma, dosed 76 weeks, study length 76 weeks): 88.2 mg/kg/day | TD50 (mouse, strain B6C3F1, males, oral dosing, site: liver, lesion: several types, types named in the paper, dosed 76 weeks, study length 76 weeks): 2.28 mg/kg/day (inactive) | TD50 (mouse, strain B6C3F1, males, oral dosing, site: lung, lesion: adenoma, dosed 76 weeks, study length 76 weeks): 88.2 mg/kg/day | carcinogen call (mouse, strain B6C3F1, males, oral dosing, site: lung, lesion: several types, types named in the paper, dosed 76 weeks, study length 76 weeks): negative (inactive)

COc1cccc(O)c1O
TD50 (rat, strain F344/DuCrj, males, in feed, site: forestomach, lesion: squamous-cell papilloma, dosed 51 weeks, study length 51 weeks): 425 mg/kg/day | TD50 (rat, strain F344/DuCrj, males, in feed, site: stomach, glandular, lesion: adenoma, dosed 51 weeks, study length 51 weeks): 48.7 mg/kg/day

— PubChem BioAssay AID1745844 (Carcinogenic Potency Database (CPDB), 2022)
